We go through one molecule from article PMC8592027, “Structure-Guided Design of D-Galactal Derivatives with High Affinity and Selectivity for the Galectin-8 N-Terminal Domain” (ACS Medicinal Chemistry Letters, 2021).

Molecules are shown by their SMILES.

For orientation: Kd means the concentration at which binding is half-saturated.

One data set addresses T1, galectin-7 (Homo sapiens, UniProt P47929).
T1 construct: made in house
Nature of the data set: Competitive fluorescence polarization assay, galectin-7. The conditions noted are these: mean ± SEM of n = 4–8. Format: binding. The method, then: (§1) 1. Competitive fluorescence polarization experiments:
(§2) Human galectins -1, -3, -4N, -4C, -7, -8N, -9N, and -9C were expressed and purified as previously described 30,41. Fluorescence polarisation experiments were performed using the PHERAstar FS plat e reader (software version 2.10 R3), and the fluorescence anisotropy of fluorescein tagged probes was measured by excitation at 485 nm and emission at 520 nm. The specific conditions for galectins -1, -3, -4N, -4C, -7, -8N, -9N, and -9C were kept as report ed30,41,42. The synthesised compounds were dissolved in pure DMSO at 20 mM concentration and diluted in PBS to 3-6 different concentrations, and each concentration was tested in duplicate. The highest inhibitor concentrations tested were 1.5 mM. The
(In general: Fluorescence polarisation rises when a labelled molecule tumbles more slowly, as on binding a larger partner.)

The target in data set [1] is T2, galectin-8C (C-terminal domain) (Homo sapiens, UniProt O00214).
T2 construct: galectins (N = N-terminal domain, C = C-terminal domain)
T2 sequence (O00214 187-317 limits assumed): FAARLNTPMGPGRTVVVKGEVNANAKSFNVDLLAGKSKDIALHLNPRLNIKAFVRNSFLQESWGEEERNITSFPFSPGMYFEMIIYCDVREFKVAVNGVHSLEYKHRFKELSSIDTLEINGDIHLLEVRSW
Description: Competitive fluorescence polarization assay, galectin-8C. Conditions: mean ± SEM of n = 4–8. Format: binding.

Data set [2] has as its target T3, galectin-9N (N-terminal domain) (Homo sapiens, UniProt O00182).
T3 construct: galectins (N = N-terminal domain, C = C-terminal domain); made in house
Nature of the data set: Competitive fluorescence polarization assay, galectin-9N. Conditions: mean ± SEM of n = 4–8. Type of data set: binding. Here is the method: as §1, §2

For data set [3], the system named is IL-8 secretion from MDA-MB-231 cells. Description: Multiplexed cytokine assay, IL-8 secretion. Format: cell-based, human. Conditions: 24 hours, vs untreated cells. Here is the method:
Figure 5 Effect of compounds 1 and 6a on the secretion of IL-6 and IL-8 expressed in pg/mL. The effects were measured after incubating the cells with the compounds at 10 and 100 μM. Compounds 1 and 6a reduce the secretion of IL-6 and IL-8 in a dose-dependent manner at 100 and 10 μM. Results shown are means ± SEM of three independent experiments. ns, not significant (p > 0.05); *p < 0.05 versus untreated controls.
Metabolic activity assay: […]
(§3) Briefly, the cells were treated with the selected compounds in 0.1% dimethyl sulfoxide (DMSO; vehicle), 0.1% DMSO (control vehicle), or medium (control) and seeded at a cell density of 5,500 cells/well (MDA-MB-231 cells) or 4 x 10^4 cells/well (K562 cells), 7000 cells/well (HepG2 cells) or 1 x 10^5 cells/well (human PBMCs) in duplicates (MDA-MB-231, K562, and […]) or triplicates for HepG2 cells (100 µL), in sterile 96-well plates. For the MDA-MB-231 and HepG2, the cells were left to adhere overnight before adding the compounds. The plates were then incubated for 24 hours (48 hours for HepG2), after which 15 µL of MTS reagent was added to each well. […]
HTX Multi-Mode; BioTek Instruments, Inc., VT, USA).
Multiplexed cytokine assay:
MDA-MB-231 cells were seeded in 96-well flat-bottom plates at a density of 2 x 10^4 cells/well in 100 µL of medium and allowed to adhere for 24 hours at 37 °C and 5% CO2. The medium was then replaced by a fresh medium containing the desired concentrations of compounds 1 and 6a, after which the cells were cells incubated again for 24 hours at 37 °C and 5% CO2. Cell-free supernatants were collected and stored at – 80 °C before the analysis. The cytokines secretion was assessed by BD Cytometric Bead Array Human inflammatory cytokine Kit (content: IL-1, IL-6, IL-8, IL-10, IL-12p). The flow cytometric analyses were performed on an Attune NxT flow cytometer (Thermo Fisher Scientific, Waltham, MA, USA). Standard curves were generated using recombinant cytokines provided in the kit, and the data were analyzed with FlowJo software (Tree Star, Inc., Ashland, OR). The results are expressed in pg/mL. Data are represented as means ± standard deviation (SD) from three representative independent experiments.
All experiments were performed at least twice, with average values expressed as means ± SD. All data were analyzed with the statistical software GraphPad Prism 8.0 (GraphPad Software, Inc., CA, USA). by one-way ANOVA followed with Dunnett’s multiple compar ison test. Differences were considered non-significant for p > 0.05, and significant (*) for p < 0.05.

The subject of data set [4] is human peripheral blood mononuclear cells (PBMCs). Nature of the data set: MTS metabolic activity (cytotoxicity) assay, PBMCs. Type of data set: cell-based. The conditions noted are these: concentrations up to 100 μM, 24 hours. The method, then: We have investigated the cytotoxicity of the compounds 1, 6a, and 6c via a (3-(4,5-dimethylthiazol-2-yl)-5-(3-carboxymethoxyphenyl)-2-(4-sulfophenyl)-2H-tetrazolium) (MTS) assay in K562 and MDA-MB-231 cancer cell lines to establish the direct antitumor activity of compounds, as well as human peripheral blood mononuclear cells (PBMCs), to evaluate their safety.
Metabolic activity assay:
as §3, with “The metabolic activities of the cell lines were determined using the CellTiter 96 Aqueous One Solution cell proliferation assay (MTS Reagents, Promega, Madison, WI, USA), according to the manufacturer instructions. Briefly,” for “Briefly,”, “well. After 30-90 minute of incubation, the absorbance was measured at 492 nm using a microplate reader (Synergy HTX Multi-Mode; BioTek Instruments, Inc., VT, USA).” for “well.”
Bead Array Human inflammatory cytokine Kit (content: IL-1, IL-6, IL-8, IL-10, IL-12p). The flow cytometric analyses were performed on an Attune NxT flow cytometer (Thermo Fisher Scientific, […]
Data are represented as means ± standard deviation (SD) from three representative independent experiments.
All experiments were performed at least twice, with average values expressed as means ± SD. All data were analyzed with the statistical software GraphPad Prism 8.0 (GraphPad Software, Inc., CA, USA). by one-way ANOVA followed with Dunnett’s multiple compar ison test. Differences were considered non-significant for p > 0.05, and significant (*) for p < 0.05. […]

T3 sequence (O00182 17-148 limits assumed): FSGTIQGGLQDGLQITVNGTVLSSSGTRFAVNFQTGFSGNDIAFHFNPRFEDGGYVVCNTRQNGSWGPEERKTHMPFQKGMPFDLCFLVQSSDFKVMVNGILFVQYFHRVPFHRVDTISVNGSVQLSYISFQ
T1 sequence (P47929 whole entry): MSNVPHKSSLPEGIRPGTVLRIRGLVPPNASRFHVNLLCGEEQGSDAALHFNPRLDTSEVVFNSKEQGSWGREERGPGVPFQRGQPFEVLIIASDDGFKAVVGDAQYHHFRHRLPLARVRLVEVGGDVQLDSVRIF

`Cn1c(CO[C@@H]2C=CO[C@H](CO)[C@@H]2O)nc2ccc(C(=O)O)cc21` [6a]: the Kd on galectin-7 was over 1.5 mM; in data set [1], 4 ± 0.5 mM; in data set [2], 1.4 ± 0.057 mM. For the same molecule, the “reduction in IL-8 secretion” value in data set [3] (10 μM, effect not significant) is on record as about 20%. Also, in data set [3] (100 μM), the “reduction of IL-8 secretion” value is “about 55%”. Further, the “direct cytotoxicity (MTS), PBMCs” value in data set [4] is “lack of direct cytotoxicity”.
